From the kinase profiling compilation of Christmann-Franck et al. (2016)

Key:
Assay in all cases: KINOMEscan competition binding
Conditions in all cases: compound 2.0 µM
MAST1 (human) = MAST1 (human) (UniProt Q9Y2H9)
[1] = tested on: MET (human), P08581 [Y1235D]
[2] = tested on: PIK3CA (human), P42336 [E545K]
STK38 (human) = STK38 (human) (UniProt Q15208)
[3] = tested on: EGFR (human), P00533 [L858R]
CDK5 (human) = CDK5 (human) (UniProt Q00535)
RPS6KA3 KD1 (human) = RPS6KA3 KD1 (human) (UniProt P51812)
PLK4 (human) = PLK4 (human) (UniProt O00444)
LRRK2 (human) = LRRK2 (human) (UniProt Q5S007)
PTK2 (human) = PTK2 (human) (UniProt Q05397)
PAK7 (human) = PAK7 (human) (UniProt Q9P286)
CHEK2 (human) = CHEK2 (human) (UniProt O96017)
SRPK3 (human) = SRPK3 (human) (UniProt Q9UPE1)
NTRK3 (human) = NTRK3 (human) (UniProt Q16288)
MAP3K9 (human) = MAP3K9 (human) (UniProt P80192)
MAP3K7 (human) = MAP3K7 (human) (UniProt O43318)
[4] = tested on: EGFR (human), P00533 [P753S; 747-752 del]
TLK2 (human) = TLK2 (human) (UniProt Q86UE8)
RPS6KA2 KD1 (human) = RPS6KA2 KD1 (human) (UniProt Q15349)
PAK4 (human) = PAK4 (human) (UniProt O96013)
LIMK2 (human) = LIMK2 (human) (UniProt P53671)
RAF1 (human) = RAF1 (human) (UniProt P04049)
WEE2 (human) = WEE2 (human) (UniProt P0C1S8)
CAMK1G (human) = CAMK1G (human) (UniProt Q96NX5)
TEC (human) = TEC (human) (UniProt P42680)
[5] = tested on: KIT (human), P10721 [V559D]
MAPK14 (human) = MAPK14 (human) (UniProt Q16539)
STK3 (human) = STK3 (human) (UniProt Q13188)
PKN2 (human) = PKN2 (human) (UniProt Q16513)
NEK7 (human) = NEK7 (human) (UniProt Q8TDX7)
EPHA8 (human) = EPHA8 (human) (UniProt P29322)
STK32B (human) = STK32B (human) (UniProt Q9NY57)
PAK1 (human) = PAK1 (human) (UniProt Q13153)
ULK3 (human) = ULK3 (human) (UniProt Q6PHR2)
MAP4K1 (human) = MAP4K1 (human) (UniProt Q92918)
AXL (human) = AXL (human) (UniProt P30530)
RPS6KA1 KD1 (human) = RPS6KA1 KD1 (human) (UniProt Q15418)
ROS1 (human) = ROS1 (human) (UniProt P08922)
CSNK1G2 (human) = CSNK1G2 (human) (UniProt P78368)
PDGFRB (human) = PDGFRB (human) (UniProt P09619)
MAPK7 (human) = MAPK7 (human) (UniProt Q13164)
PRKX (human) = PRKX (human) (UniProt P51817)
PRKCI (human) = PRKCI (human) (UniProt P41743)

Chain of KIT (human), P10721 [V559D] (P10721 whole entry V559D, looked up): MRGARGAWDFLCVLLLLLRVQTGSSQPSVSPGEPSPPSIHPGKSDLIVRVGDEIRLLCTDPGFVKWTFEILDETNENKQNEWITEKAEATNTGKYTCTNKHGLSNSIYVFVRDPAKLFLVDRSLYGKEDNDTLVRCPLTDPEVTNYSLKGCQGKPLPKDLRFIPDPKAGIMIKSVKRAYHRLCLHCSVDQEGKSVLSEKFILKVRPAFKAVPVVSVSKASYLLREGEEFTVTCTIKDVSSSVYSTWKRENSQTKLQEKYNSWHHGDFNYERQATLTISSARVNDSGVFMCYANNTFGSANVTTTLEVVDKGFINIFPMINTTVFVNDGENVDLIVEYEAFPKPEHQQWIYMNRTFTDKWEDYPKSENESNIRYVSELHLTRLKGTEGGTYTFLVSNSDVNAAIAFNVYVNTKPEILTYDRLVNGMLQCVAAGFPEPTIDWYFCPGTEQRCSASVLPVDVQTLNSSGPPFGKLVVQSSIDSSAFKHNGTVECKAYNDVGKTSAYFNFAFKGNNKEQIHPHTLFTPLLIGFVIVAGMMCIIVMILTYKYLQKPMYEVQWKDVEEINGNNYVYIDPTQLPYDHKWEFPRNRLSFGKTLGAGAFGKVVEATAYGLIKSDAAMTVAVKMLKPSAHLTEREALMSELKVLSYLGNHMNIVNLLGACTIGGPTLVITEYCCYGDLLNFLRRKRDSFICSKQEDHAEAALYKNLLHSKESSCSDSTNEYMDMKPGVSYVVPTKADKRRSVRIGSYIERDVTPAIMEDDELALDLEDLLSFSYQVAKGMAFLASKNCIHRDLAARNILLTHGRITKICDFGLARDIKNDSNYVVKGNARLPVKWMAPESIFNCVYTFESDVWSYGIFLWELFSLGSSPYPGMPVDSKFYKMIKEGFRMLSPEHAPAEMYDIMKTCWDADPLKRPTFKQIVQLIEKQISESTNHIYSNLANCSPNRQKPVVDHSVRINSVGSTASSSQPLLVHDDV
Chain of TEC (human) (P42680 whole entry, looked up): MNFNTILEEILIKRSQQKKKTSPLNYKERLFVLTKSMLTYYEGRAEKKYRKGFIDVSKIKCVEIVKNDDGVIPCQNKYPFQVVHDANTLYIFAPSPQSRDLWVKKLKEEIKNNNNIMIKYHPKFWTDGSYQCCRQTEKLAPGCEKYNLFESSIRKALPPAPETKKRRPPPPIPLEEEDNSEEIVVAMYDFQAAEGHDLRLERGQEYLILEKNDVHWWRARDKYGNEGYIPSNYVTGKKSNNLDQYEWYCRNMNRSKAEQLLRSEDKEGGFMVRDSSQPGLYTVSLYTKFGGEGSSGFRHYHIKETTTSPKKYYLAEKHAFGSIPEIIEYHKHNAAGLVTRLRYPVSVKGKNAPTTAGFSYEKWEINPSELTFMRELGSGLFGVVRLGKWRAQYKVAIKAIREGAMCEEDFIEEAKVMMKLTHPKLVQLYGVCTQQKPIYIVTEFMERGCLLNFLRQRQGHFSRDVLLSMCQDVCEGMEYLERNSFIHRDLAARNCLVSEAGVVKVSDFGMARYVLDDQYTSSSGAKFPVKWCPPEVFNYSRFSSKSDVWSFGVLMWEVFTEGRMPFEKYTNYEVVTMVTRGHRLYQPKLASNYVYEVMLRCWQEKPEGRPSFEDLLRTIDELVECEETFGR
Chain of MAP3K7 (human) (O43318 whole entry, looked up): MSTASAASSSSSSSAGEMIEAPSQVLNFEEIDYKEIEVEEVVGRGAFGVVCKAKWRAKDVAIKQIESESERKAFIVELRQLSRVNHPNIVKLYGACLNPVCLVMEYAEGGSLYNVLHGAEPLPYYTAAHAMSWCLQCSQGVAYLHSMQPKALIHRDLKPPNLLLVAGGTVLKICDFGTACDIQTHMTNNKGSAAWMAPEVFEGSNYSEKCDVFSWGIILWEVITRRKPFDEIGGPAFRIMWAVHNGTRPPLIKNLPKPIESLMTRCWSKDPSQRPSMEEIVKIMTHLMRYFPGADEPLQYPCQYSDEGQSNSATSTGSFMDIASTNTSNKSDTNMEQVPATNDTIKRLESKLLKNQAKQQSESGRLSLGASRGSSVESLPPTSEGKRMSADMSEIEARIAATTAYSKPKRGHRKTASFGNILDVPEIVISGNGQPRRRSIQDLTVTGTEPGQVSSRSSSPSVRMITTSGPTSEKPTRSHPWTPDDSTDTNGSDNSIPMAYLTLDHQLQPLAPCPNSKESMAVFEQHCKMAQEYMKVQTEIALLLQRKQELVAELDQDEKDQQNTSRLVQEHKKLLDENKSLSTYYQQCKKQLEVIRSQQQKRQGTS
Chain of LRRK2 (human) (Q5S007 whole entry, looked up): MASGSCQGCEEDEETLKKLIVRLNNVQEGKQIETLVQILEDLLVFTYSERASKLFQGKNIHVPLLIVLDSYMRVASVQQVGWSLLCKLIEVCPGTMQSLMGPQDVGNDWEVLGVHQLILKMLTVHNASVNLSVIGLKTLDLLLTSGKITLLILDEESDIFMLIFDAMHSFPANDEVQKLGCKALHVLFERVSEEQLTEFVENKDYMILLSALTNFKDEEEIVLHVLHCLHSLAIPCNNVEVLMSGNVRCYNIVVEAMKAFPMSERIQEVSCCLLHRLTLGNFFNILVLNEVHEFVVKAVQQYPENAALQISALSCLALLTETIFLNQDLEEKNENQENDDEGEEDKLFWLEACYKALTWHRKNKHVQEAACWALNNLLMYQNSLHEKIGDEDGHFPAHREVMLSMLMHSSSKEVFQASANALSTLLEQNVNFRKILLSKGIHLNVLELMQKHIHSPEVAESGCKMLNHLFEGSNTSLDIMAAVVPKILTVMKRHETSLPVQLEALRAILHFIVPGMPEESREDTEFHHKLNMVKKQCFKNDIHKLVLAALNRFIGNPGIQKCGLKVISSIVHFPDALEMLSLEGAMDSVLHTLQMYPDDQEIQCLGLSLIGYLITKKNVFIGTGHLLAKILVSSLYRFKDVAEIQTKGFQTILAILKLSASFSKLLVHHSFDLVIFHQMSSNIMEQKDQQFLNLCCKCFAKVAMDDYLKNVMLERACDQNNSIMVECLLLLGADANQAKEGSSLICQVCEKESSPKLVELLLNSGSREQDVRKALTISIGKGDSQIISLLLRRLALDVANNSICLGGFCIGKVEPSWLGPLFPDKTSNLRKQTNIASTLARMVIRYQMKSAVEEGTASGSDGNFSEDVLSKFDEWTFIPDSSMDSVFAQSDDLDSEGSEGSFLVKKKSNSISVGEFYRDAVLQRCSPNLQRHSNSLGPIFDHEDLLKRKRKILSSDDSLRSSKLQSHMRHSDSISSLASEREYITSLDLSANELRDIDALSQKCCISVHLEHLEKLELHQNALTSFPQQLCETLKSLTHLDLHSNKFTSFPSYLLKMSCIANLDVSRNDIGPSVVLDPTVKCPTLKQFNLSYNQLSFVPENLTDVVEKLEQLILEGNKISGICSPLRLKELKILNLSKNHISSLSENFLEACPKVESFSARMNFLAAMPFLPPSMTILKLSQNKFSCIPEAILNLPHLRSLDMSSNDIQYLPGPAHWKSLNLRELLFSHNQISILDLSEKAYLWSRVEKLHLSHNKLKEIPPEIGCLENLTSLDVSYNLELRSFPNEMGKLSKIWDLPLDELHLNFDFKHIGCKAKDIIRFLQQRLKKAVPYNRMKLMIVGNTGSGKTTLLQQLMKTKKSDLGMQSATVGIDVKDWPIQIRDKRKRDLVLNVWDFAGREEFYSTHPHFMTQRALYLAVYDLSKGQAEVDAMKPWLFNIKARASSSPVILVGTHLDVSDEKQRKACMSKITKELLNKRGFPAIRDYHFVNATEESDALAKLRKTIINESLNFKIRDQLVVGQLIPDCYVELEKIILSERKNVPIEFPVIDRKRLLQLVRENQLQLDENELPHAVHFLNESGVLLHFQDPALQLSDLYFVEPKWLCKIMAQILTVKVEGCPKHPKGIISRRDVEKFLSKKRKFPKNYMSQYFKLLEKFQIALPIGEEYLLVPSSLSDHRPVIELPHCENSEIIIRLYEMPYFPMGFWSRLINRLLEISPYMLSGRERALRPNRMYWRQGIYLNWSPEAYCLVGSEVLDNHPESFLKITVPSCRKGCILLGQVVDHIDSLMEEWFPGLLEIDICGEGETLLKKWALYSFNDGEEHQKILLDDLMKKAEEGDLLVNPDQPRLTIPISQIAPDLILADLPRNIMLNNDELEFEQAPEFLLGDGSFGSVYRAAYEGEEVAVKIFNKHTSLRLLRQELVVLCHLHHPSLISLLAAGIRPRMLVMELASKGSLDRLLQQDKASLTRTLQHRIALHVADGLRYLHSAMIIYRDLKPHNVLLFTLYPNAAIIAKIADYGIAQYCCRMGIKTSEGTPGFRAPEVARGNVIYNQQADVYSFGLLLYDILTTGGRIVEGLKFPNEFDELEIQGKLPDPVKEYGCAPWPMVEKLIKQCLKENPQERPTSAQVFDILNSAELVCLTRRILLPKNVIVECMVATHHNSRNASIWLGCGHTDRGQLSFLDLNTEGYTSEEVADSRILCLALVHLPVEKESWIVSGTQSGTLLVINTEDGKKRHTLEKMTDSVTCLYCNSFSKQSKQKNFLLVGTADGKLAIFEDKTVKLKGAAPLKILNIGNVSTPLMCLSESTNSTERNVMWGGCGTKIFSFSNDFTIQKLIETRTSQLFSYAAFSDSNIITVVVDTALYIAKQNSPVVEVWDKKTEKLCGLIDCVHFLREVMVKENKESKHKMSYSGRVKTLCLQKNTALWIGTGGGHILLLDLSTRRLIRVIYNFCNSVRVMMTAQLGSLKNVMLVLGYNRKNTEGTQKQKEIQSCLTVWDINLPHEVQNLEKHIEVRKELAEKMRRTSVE
Chain of MAPK14 (human) (Q16539 whole entry, looked up): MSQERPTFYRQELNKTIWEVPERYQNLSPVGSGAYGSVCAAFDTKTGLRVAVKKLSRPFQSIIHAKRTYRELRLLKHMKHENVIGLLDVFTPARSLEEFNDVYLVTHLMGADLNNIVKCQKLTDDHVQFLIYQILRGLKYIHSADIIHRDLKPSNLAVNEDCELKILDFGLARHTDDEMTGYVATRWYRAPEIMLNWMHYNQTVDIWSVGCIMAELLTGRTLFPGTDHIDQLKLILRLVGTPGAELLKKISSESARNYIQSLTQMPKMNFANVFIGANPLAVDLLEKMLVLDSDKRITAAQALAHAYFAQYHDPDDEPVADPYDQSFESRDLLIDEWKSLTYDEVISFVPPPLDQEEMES

In the case of `N#Cc1ccc2ncnc(NCCc3ccc4ccccc4c3)c2c1`, the kinase still bound, per cent of control (MAST1 (human)) was 84%, the kinase still bound, per cent of control [1] was 100% and the kinase still bound, per cent of control [2] was 94%. The kinase still bound, per cent of control (STK38 (human)) was 100%, the kinase still bound, per cent of control [3] was 96% and the kinase still bound, per cent of control (CDK5 (human)) was 100%. The kinase still bound, per cent of control (RPS6KA3 KD1 (human)) was 97%, the kinase still bound, per cent of control (PLK4 (human)) was 100% and the kinase still bound, per cent of control (LRRK2 (human)) was 85%. It also gave a kinase still bound, per cent of control (PTK2 (human)) of 88%, a kinase still bound, per cent of control (PAK7 (human)) of 100% and a kinase still bound, per cent of control (CHEK2 (human)) of 62%. For the same compound, the kinase still bound, per cent of control (SRPK3 (human)) was 86%, the kinase still bound, per cent of control (NTRK3 (human)) was 100% and the kinase still bound, per cent of control (MAP3K9 (human)) was 85%. It also gave a kinase still bound, per cent of control (MAP3K7 (human)) of 78%, a kinase still bound, per cent of control [4] of 89% and a kinase still bound, per cent of control (TLK2 (human)) of 94%. It also gave a kinase still bound, per cent of control (RPS6KA2 KD1 (human)) of 100%, a kinase still bound, per cent of control (PAK4 (human)) of 91% and a kinase still bound, per cent of control (LIMK2 (human)) of 94%. For the same compound, the kinase still bound, per cent of control (RAF1 (human)) was 100%, the kinase still bound, per cent of control (WEE2 (human)) was 65% and the kinase still bound, per cent of control (CAMK1G (human)) was 86%. The kinase still bound, per cent of control (TEC (human)) was 100%, the kinase still bound, per cent of control [5] was 95% and the kinase still bound, per cent of control (MAPK14 (human)) was 100%. For the same compound, the kinase still bound, per cent of control (STK3 (human)) was 74%, the kinase still bound, per cent of control (PKN2 (human)) was 100% and the kinase still bound, per cent of control (NEK7 (human)) was 100%. For the same compound, the kinase still bound, per cent of control (EPHA8 (human)) was 87%, the kinase still bound, per cent of control (STK32B (human)) was 97% and the kinase still bound, per cent of control (PAK1 (human)) was 82%. The kinase still bound, per cent of control (ULK3 (human)) was 100%, the kinase still bound, per cent of control (MAP4K1 (human)) was 81% and the kinase still bound, per cent of control (AXL (human)) was 88%. For the same compound, the kinase still bound, per cent of control (RPS6KA1 KD1 (human)) was 81%, the kinase still bound, per cent of control (ROS1 (human)) was 95% and the kinase still bound, per cent of control (CSNK1G2 (human)) was 87%. It also gave a kinase still bound, per cent of control (PDGFRB (human)) of 100%, a kinase still bound, per cent of control (MAPK7 (human)) of 93% and a kinase still bound, per cent of control (PRKX (human)) of 93%. It also gave a kinase still bound, per cent of control (PRKCI (human)) of 100%.
